Series [1] in a line: Body weight of treated nude mice with MX-1 xenograft (FIG. 2). The settings on record: infusion twice daily for five days; during the course of treatment. It counts as in vivo.
The test system of series [2] is SF cancer cell line. Put plainly: Cytotoxicity in cell culture (FIG. 3), SF. The settings on record: SF cells, in vitro. It counts as cell-based.
The subject of series [3] is H460 cancer cell line. Put plainly: Cytotoxicity in cell culture (FIG. 3), H460. It counts as cell-based. The settings on record: H460 cells, in vitro.
Series [4] concerns MCF-7 cancer cell line. Description: Cytotoxicity in cell culture (FIG. 3), MCF-7. It counts as cell-based. The following applies: MCF-7 cells, in vitro.
For series [5], the system named is MX-1 tumor xenograft. Description: MX-1 tumor xenograft in nude mice, tumor size (FIG. 1). It counts as in vivo. The following applies: infusion twice daily for five days; compared with control (pharmaceutical carrier only).
In series [6] the test system is NCI-ADR cancer cell line. Description: Cytotoxicity in cell culture (FIG. 3), NCI-ADR. Type of series: cell-based. The following applies: NCI-ADR cells, in vitro.

On to `C/C1=C/[C@H](C)[C@@H](/C(C)=C/c2csc(C)n2)OC(=O)C[C@H](O)C(C)(C)C(=O)[C@H](C)[C@@H](O)[C@@H](C)CCC1` [(14S)-14-methylepothilone D], for which the body weight result in series [1] is reported as “slight decrease in body weight”. Also, the cytotoxicity result in series [2], in series [3], in series [4] and in series [6] was “cytotoxic” each time. For the same compound, in series [5], the “rate of tumor growth as measured by the tumor size” value is reported as “decrease in the rate of tumor growth”.
As to `C/C(=C\c1csc(C)n1)[C@H]1OC(=O)C[C@H](O)C(C)(C)C(=O)[C@H](C)[C@@H](O)[C@@H](C)CCC[C@@]2(C)O[C@H]2[C@H]1C` [(14S)-14-methylepothilone B], the cytotoxicity result in series [2], in series [3], in series [4] and in series [6] was “essentially inactive” in each case.
Take `C/C(=C\c1csc(C)n1)[C@H]1OC(=O)C[C@H](O)C(C)(C)C(=O)[C@H](C)[C@@H](O)[C@@H](C)CCC[C@@]2(C)O[C@H]2[C@@H]1C` [(14R)-14-methylepothilone B]: the cytotoxicity entry in series [2], in series [3], in series [4] and in series [6] was “cytotoxic” throughout.
Take `C/C1=C/[C@@H](C)[C@@H](/C(C)=C/c2csc(C)n2)OC(=O)C[C@H](O)C(C)(C)C(=O)[C@H](C)[C@@H](O)[C@@H](C)CCC1` [(14R)-14-methylepothilone D]: the cytotoxicity entry in series [2], in series [3], in series [4] and in series [6] was “essentially inactive” each time.

(Values after patent US20030134883A1, “14-Methyl-epothilones” (priority 2001, published 2003).)
